Assay results published in patent publication US7553864B2, “Compounds for the treatment of inflammatory disorders and microbial diseases” (Schering Corporation, priority 2005, dated 2009).

Each compound was assayed against T1, ADMP (ADAMTS-4-5) (Homo sapiens, UniProt O75173) (assay: ADMP activity assay (procedures of WO00/05256)). Conditions: read-out: IC50 rating (ADMP inhibitory activity).
T1 construct: purchased Calbiochem PF113
T1 sequence (O75173 213-837): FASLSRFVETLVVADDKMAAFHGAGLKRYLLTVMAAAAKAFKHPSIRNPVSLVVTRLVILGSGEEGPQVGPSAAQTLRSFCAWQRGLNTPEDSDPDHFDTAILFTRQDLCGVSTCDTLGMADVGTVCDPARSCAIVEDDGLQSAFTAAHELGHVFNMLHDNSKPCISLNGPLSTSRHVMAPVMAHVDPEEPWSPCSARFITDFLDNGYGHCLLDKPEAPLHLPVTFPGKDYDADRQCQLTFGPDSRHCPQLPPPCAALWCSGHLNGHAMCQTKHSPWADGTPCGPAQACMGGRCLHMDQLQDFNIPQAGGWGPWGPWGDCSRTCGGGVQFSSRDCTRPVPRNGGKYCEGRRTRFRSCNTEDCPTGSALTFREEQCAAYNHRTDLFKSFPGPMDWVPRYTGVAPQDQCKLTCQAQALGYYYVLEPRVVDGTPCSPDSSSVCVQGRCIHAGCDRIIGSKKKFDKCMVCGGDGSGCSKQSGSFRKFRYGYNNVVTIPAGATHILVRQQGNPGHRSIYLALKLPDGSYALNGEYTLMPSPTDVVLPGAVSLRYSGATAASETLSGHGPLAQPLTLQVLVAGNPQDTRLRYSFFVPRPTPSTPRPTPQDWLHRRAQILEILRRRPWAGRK
Assay type: biochemical
From the text: The procedures of International Patent Publication WO00/05256 (published Feb. 3, 2000) were followed for detection of ADMP Activity and for measuring the IC50 of the compounds of the present invention. This was indicative of activity against a desintgrin and metallopropeinase thrombo spondin 4 and 5 (ADAMTS-4-5).
The enzyme was purchased commercially from Calbiochem (Cat# PF113) and the peptide substrate described in the patent was custom-ordered from AnaSpec.
Compound CN(C(=O)[C@H](O)[C@@H](O)C(=O)NCc1ccc(C(F)(F)F)cc1)C1CCCCC1 [Compound 125] has an IC50 of 250 to 1000 nM.
O=C(NCc1ccc(C(F)(F)F)cc1)[C@H](O)[C@@H](O)C(=O)N1CCN(c2ccc(F)cc2)CC1 [Compound 126] showed an IC50 of 250 to 1000 nM.
For CN(C)CCN(C)C(=O)[C@H](O)[C@@H](O)C(=O)NCc1ccc(C(F)(F)F)cc1 [Compound 127], the IC50 was > 5000 nM.
Work on COc1ccc(N2CCN(C(=O)[C@H](O)[C@@H](O)C(=O)NCCc3cccc(Cl)c3)CC2)cc1 [Compound 131] yielded an IC50 of 250 to 1000 nM.

Each compound was assayed on LpxC enzyme (assay: LpxC enzyme assay (RapidFire high-throughput mass spectrometry)). Conditions: concentration 0.10 (unit not given).
Assay type: biochemical
In short: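 0.2 nM enzyme with 1.0 μM UDP-3-O-(R-3-hydroxymyristoyl)-N-acetylglucosamine in 25 mM HEPES pH 7.3, 150 mM NaCl, 2.0 mM DTT, 0.01% BSA, 2% DMSO; 60 min at room temperature, quenched with HCl. Substrate and product quantified by RapidFire mass spectrometry; percent conversion gives percent inhibition versus DMSO control.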
With O=C(Nc1ccc(-c2cc[nH]n2)cc1)[C@H](O)[C@@H](O)C(=O)N1CCCC1 [Compound 76] the “LpxC enzyme assay rating (% inhibition at indicated concentrations)” value was “C (less than 10% inhibition)”.
With C[C@H](O)[C@@H](NC(=O)[C@H](O)[C@@H](O)C(=O)N(C)C)C(=O)Nc1ccc(C#Cc2ccccc2)cc1 [Compound 77] the “LpxC enzyme assay rating (% inhibition at indicated concentrations)” value was “C (less than 10% inhibition)”.

Same assay, conditions: concentration 0.20 (unit not given)
For O=C(Nc1ccc(-c2cc[nH]n2)cc1)[C@H](O)[C@@H](O)C(=O)N1CCCC1 [Compound 76], the “LpxC enzyme assay rating (% inhibition at indicated concentrations)” value was “C (less than 10% inhibition)”.
For C[C@H](O)[C@@H](NC(=O)[C@H](O)[C@@H](O)C(=O)N(C)C)C(=O)Nc1ccc(C#Cc2ccccc2)cc1 [Compound 77], the “LpxC enzyme assay rating (% inhibition at indicated concentrations)” value was “C (less than 10% inhibition)”.

Same assay, conditions: concentration 0.39 (unit not given)
O=C(Nc1ccc(-c2cc[nH]n2)cc1)[C@H](O)[C@@H](O)C(=O)N1CCCC1 [Compound 76] was tested, and the “LpxC enzyme assay rating (% inhibition at indicated concentrations)” value was “C (less than 10% inhibition)”.
C[C@H](O)[C@@H](NC(=O)[C@H](O)[C@@H](O)C(=O)N(C)C)C(=O)Nc1ccc(C#Cc2ccccc2)cc1 [Compound 77] was tested, and the “LpxC enzyme assay rating (% inhibition at indicated concentrations)” value was “C (less than 10% inhibition)”.

Same assay, conditions: concentration 0.78 (unit not given)
For O=C(Nc1ccc(-c2cc[nH]n2)cc1)[C@H](O)[C@@H](O)C(=O)N1CCCC1 [Compound 76], the “LpxC enzyme assay rating (% inhibition at indicated concentrations)” value was “C (less than 10% inhibition)”.
With C[C@H](O)[C@@H](NC(=O)[C@H](O)[C@@H](O)C(=O)N(C)C)C(=O)Nc1ccc(C#Cc2ccccc2)cc1 [Compound 77] the “LpxC enzyme assay rating (% inhibition at indicated concentrations)” value was “C (less than 10% inhibition)”.

Same assay, conditions: concentration 1.56 (unit not given)
O=C(Nc1ccc(-c2cc[nH]n2)cc1)[C@H](O)[C@@H](O)C(=O)N1CCCC1 [Compound 76] was tested, and the “LpxC enzyme assay rating (% inhibition at indicated concentrations)” value was “B (10-30% inhibition)”.
C[C@H](O)[C@@H](NC(=O)[C@H](O)[C@@H](O)C(=O)N(C)C)C(=O)Nc1ccc(C#Cc2ccccc2)cc1 [Compound 77] was tested, and the “LpxC enzyme assay rating (% inhibition at indicated concentrations)” value was “C (less than 10% inhibition)”.

Same assay, conditions: concentration 3.13 (unit not given)
In the case of O=C(Nc1ccc(-c2cc[nH]n2)cc1)[C@H](O)[C@@H](O)C(=O)N1CCCC1 [Compound 76], the “LpxC enzyme assay rating (% inhibition at indicated concentrations)” value is reported as “C (less than 10% inhibition)”.
C[C@H](O)[C@@H](NC(=O)[C@H](O)[C@@H](O)C(=O)N(C)C)C(=O)Nc1ccc(C#Cc2ccccc2)cc1 [Compound 77] was tested, and the “LpxC enzyme assay rating (% inhibition at indicated concentrations)” value was “C (less than 10% inhibition)”.

Same assay, conditions: concentration 6.25 (unit not given)
With O=C(Nc1ccc(-c2cc[nH]n2)cc1)[C@H](O)[C@@H](O)C(=O)N1CCCC1 [Compound 76] the “LpxC enzyme assay rating (% inhibition at indicated concentrations)” value was “B (10-30% inhibition)”.
With C[C@H](O)[C@@H](NC(=O)[C@H](O)[C@@H](O)C(=O)N(C)C)C(=O)Nc1ccc(C#Cc2ccccc2)cc1 [Compound 77] the “LpxC enzyme assay rating (% inhibition at indicated concentrations)” value was “C (less than 10% inhibition)”.

Same assay, conditions: concentration 12.50 (unit not given)
For O=C(Nc1ccc(-c2cc[nH]n2)cc1)[C@H](O)[C@@H](O)C(=O)N1CCCC1 [Compound 76], the “LpxC enzyme assay rating (% inhibition at indicated concentrations)” value was “C (less than 10% inhibition)”.
In the case of C[C@H](O)[C@@H](NC(=O)[C@H](O)[C@@H](O)C(=O)N(C)C)C(=O)Nc1ccc(C#Cc2ccccc2)cc1 [Compound 77], the “LpxC enzyme assay rating (% inhibition at indicated concentrations)” value is reported as “B (10-30% inhibition)”.

Same assay, conditions: concentration 25 (unit not given)
For O=C(Nc1ccc(-c2cc[nH]n2)cc1)[C@H](O)[C@@H](O)C(=O)N1CCCC1 [Compound 76], the “LpxC enzyme assay rating (% inhibition at indicated concentrations)” value was “C (less than 10% inhibition)”.
With C[C@H](O)[C@@H](NC(=O)[C@H](O)[C@@H](O)C(=O)N(C)C)C(=O)Nc1ccc(C#Cc2ccccc2)cc1 [Compound 77] the “LpxC enzyme assay rating (% inhibition at indicated concentrations)” value was “A (greater than 30% inhibition)”.

Same assay, conditions: concentration 50 (unit not given)
With O=C(Nc1ccc(-c2cc[nH]n2)cc1)[C@H](O)[C@@H](O)C(=O)N1CCCC1 [Compound 76] the “LpxC enzyme assay rating (% inhibition at indicated concentrations)” value was “C (less than 10% inhibition)”.
